Structures can show the parent of a compound that is named as a salt.
Tests used:
[1] = test system: Pseudomonas aeruginosa ATCC27853; assay: Antimicrobial susceptibility testing, 90% growth inhibitory concentration (IC90) determination; type: cell-based; details: Iso-Sensitest broth, OD 600 nm over 16 h, 35±2° C., read-out: ATCC 27853 IC90
Procedure: (§1) 90% Growth Inhibitory Concentration (IC90) Determination The in vitro antimicrobial activity of the compounds was determined according to the following procedure: The assay used a 10-points Iso-Sensitest broth medium to measure quantitatively the in vitro activity of the compounds against Acinetobacter baumannii ATCC17961 and Pseudomonas aeruginosa ATCC27853. Stock compounds in DMSO were serially twofold diluted (e.g. range from 50 to 0.097 μM final concentration) in 384 wells microtiter plates and inoculated with 49 μl the bacterial suspension in Iso-Sensitest medium to have a final cell concentration of ˜5×10^(5) CFU/ml in a final volume/well of 50 ul/well. Microtiter plates were incubated at 35±2° C. Bacterial cell growth was determined with the measurement of optical density at λ=600 nm each 20 minutes over a time course of 16 h. Growth inhibition was calculated during the logarithmic growth of the bacterial cells with determination of the concentration inhibiting 50% (IC50) and 90% (IC90) of the growth. Table 2 provides the 90% growth inhibitory concentrations (IC90) in micromoles per liter of the compounds of present invention obtained against the strain Pseudomonas aeruginosa ATCC27853.

[2] = test system: Acinetobacter baumannii ATCC17961; assay: as above; type: cell-based; details: Iso-Sensitest broth, OD 600 nm over 16 h, 35±2° C., read-out: ATCC 17961 IC90
Procedure: as §1, with “Table 1” for “Table 2”, “strain Acinetobacter baumannii ATCC17961.” for “strain Pseudomonas aeruginosa ATCC27853.”

SMILES | IC90 [1] [nM] | IC90 [2] [nM]
CCc1cc(Nc2nccn3c(-c4ccc(-c5c[nH]nc5C(F)(F)F)c(F)c4F)cnc23)ccc1C(=O)NCC1CC[N+](C)(CC2CNC2)CC1 (stereo not shown) [Example B6, N-[[1-(azetidin-3-ylmethyl)-1-methyl-piperidin-1-ium-4-yl]methyl]-4-[[3-[2,3-difluoro-4-[3-(trifluoromethyl)-1H-pyrazol-4-yl]phenyl]imidazo[1,2-a]pyrazin-8-yl]amino]-2-ethyl-benzamide; formic acid; formate] | 250 | 160
CCc1cc(Nc2nccn3c(-c4ccc(-c5c[nH]nc5C)c(F)c4F)cnc23)ccc1C(=O)NCC1CC[N+](C)(CC(=O)O)CC1 (stereo not shown) [Example A4, 2-[4-[[[4-[[3-[2,3-difluoro-4-(3-methyl-1H-pyrazol-4-yl)phenyl]imidazo[1,2-a]pyrazin-8-yl]amino]-2-ethyl-benzoyl]amino]methyl]-1-methyl-piperidin-1-ium-1-yl]acetic acid; formate] | 1200 | 310
CCc1cc(Nc2nccn3c(-c4ccc(-c5c[nH]nc5C)c(F)c4F)cnc23)ccc1C(=O)NCC1CC[N+](C)(CC2CNC2)CC1 (stereo not shown) [Example A2, N-[[1-(Azetidin-3-ylmethyl)-1-methyl-piperidin-1-ium-4-yl]methyl]-4-[[3-[2,3-difluoro-4-(3-methyl-1H-pyrazol-4-yl)phenyl]imidazo[1,2-a]pyrazin-8-yl]amino]-2-ethyl-benzamide; formic acid; formate] | 98 | 50
CCc1cc(Nc2nccn3c(-c4ccc(-c5c[nH]nc5C)c(F)c4F)cnc23)ccc1C(=O)NCC1CC[N+](CC(=O)O)(CC2CNC2)CC1 (stereo not shown) [Example A5, 2-[1-(azetidin-3-ylmethyl)-4-[[[4-[[3-[2,3-difluoro-4-(3-methyl-1H-pyrazol-4-yl)phenyl]imidazo[1,2-a]pyrazin-8-yl]amino]-2-ethyl-benzoyl]amino]methyl]piperidin-1-ium-1-yl]acetic acid; formic acid; formate] | 240 | 150
CCc1cc(Nc2nccn3c(-c4ccc(-c5c(C)n[nH]c5C)nc4F)cnc23)ccc1C(=O)NCC1CC[N+](C)(CC2CNC2)CC1 (stereo not shown) [Example B4, N-[[1-(azetidin-3-ylmethyl)-1-methyl-piperidin-1-ium-4-yl]methyl]-4-[[3-[6-(3,5-dimethyl-1H-pyrazol-4-yl)-2-fluoro-3-pyridyl]imidazo[1,2-a]pyrazin-8-yl]amino]-2-ethyl-benzamide; formic acid; formate] | 98 | 430
CCc1cc(Nc2nccn3c(-c4ccc(-c5c[nH]nc5C)c(F)c4F)cnc23)ccc1C(=O)NCC1CCN(CC2CNC2)CC1 [Example A1, N-[[1-(Azetidin-3-ylmethyl)-4-piperidyl]methyl]-4-[[3-[2,3-difluoro-4-(3-methyl-1H-pyrazol-4-yl)phenyl]imidazo[1,2-a]pyrazin-8-yl]amino]-2-ethyl-benzamide; formic acid] | 160 | 47
CCc1cc(Nc2nccn3c(-c4ccc(-c5c[nH]nc5C)nc4F)cnc23)ccc1C(=O)NCC1CC[N+](C)(CC2CNC2)CC1 (stereo not shown) [Example B1, N-[[1-(Azetidin-3-ylmethyl)-1-methyl-piperidin-1-ium-4-yl]methyl]-2-ethyl-4-[[3-[2-fluoro-6-(3-methyl-1H-pyrazol-4-yl)-3-pyridyl]imidazo[1,2-a]pyrazin-8-yl]amino]benzamide; formic acid; formate] | 120 | 1100
CCc1cc(Nc2nccn3c(-c4ccc(-c5c[nH]nc5C)c(F)c4F)cnc23)ccc1C(=O)NCC1CCN(CC(=O)O)CC1 [Example A3, 2-[4-[[[4-[[3-[2,3-difluoro-4-(3-methyl-1H-pyrazol-4-yl)phenyl]imidazo[1,2-a]pyrazin-8-yl]amino]-2-ethyl-benzoyl]amino]methyl]-1-piperidyl]acetic acid] | 1800 | 340
CCc1cc(Nc2nccn3c(-c4ccc(-c5c[nH]nc5C)cc4)cnc23)ccc1C(=O)NCC1CC[N+](C)(CC2CNC2)CC1 (stereo not shown) [Example B5, N-[[1-(azetidin-3-ylmethyl)-1-methyl-piperidin-1-ium-4-yl]methyl]-2-ethyl-4-[[3-[4-(3-methyl-1H-pyrazol-4-yl)phenyl]imidazo[1,2-a]pyrazin-8-yl]amino]benzamide; formic acid; formate] | 98 | 100
CCc1cc(Nc2nccn3c(-c4ccc(-c5c[nH]nc5C(F)(F)F)c(F)c4F)cnc23)ccc1C(=O)NCC1CCN(CC2CNC2)CC1 [Example A12, N-[[1-(azetidin-3-ylmethyl)-4-piperidyl]methyl]-4-[[3-[2,3-difluoro-4-[3-(trifluoromethyl)-1H-pyrazol-4-yl]phenyl]imidazo[1,2-a]pyrazin-8-yl]amino]-2-ethyl-benzamide; formic acid] | 430 | 280

Other lines, results leading:

IC90 [1] [nM] | IC90 [2] [nM] | SMILES
1600 | 430 | CCc1cc(Nc2nccn3c(-c4ccc(-c5cn(CCOC)nc5C)c(F)c4F)cnc23)ccc1C(=O)NCC1CC[N+](C)(CCO)CC1 (stereo not shown) [Example C3, 4-[[3-[2,3-difluoro-4-[1-(2-methoxyethyl)-3-methyl-pyrazol-4-yl]phenyl]imidazo[1,2-a]pyrazin-8-yl]amino]-2-ethyl-N-[[1-(2-hydroxyethyl)-1-methyl-piperidin-1-ium-4-yl]methyl]benzamide; formate]
390 | 320 | CCc1cc(Nc2nccn3c(-c4ccc(-c5c(C)nn(CCOC)c5C)c(F)c4F)cnc23)ccc1C(=O)NCC1CC[N+](C)(CC2CNC2)CC1 (stereo not shown) [Example C7, N-[[1-(azetidin-3-ylmethyl)-1-methyl-piperidin-1-ium-4-yl]methyl]-4-[[3-[2,3-difluoro-4-[1-(2-methoxyethyl)-3,5-dimethyl-pyrazol-4-yl]phenyl]imidazo[1,2-a]pyrazin-8-yl]amino]-2-ethyl-benzamide; formic acid; formate]
410 | 460 | CCc1cc(Nc2nccn3c(-c4ccc(-c5cn(CCOC)nc5C)c(F)c4F)cnc23)ccc1C(=O)NCC1CC[N+](C)(CC2CNC2)CC1 (stereo not shown) [Example C4, N-[[1-(azetidin-3-ylmethyl)-1-methyl-piperidin-1-ium-4-yl]methyl]-4-[[3-[2,3-difluoro-4-[1-(2-methoxyethyl)-3-methyl-pyrazol-4-yl]phenyl]imidazo[1,2-a]pyrazin-8-yl]amino]-2-ethyl-benzamide; formic acid; formate]
1200 | 290 | CCc1cc(Nc2nccn3c(-c4ccc(-c5cn(CCOC)nc5C)c(F)c4F)cnc23)ccc1C(=O)NCC1CC[N+](C)(CC(N)=O)CC1 (stereo not shown) [Example C2, N-[[1-(2-amino-2-oxo-ethyl)-1-methyl - piperidin-1-ium-4-yl]methyl]-4-[[3-[2,3-difluoro-4-[1-(2-methoxyethyl)-3-methyl-pyrazol-4-yl]phenyl]imidazo[1,2-a]pyrazin-8-yl]amino]-2-ethyl-benzamide; formate]
1200 | 440 | CCc1cc(Nc2nccn3c(-c4ccc(-c5c(C)nn(CCOC)c5C)c(F)c4F)cnc23)ccc1C(=O)NCC1CC[N+](C)(CCO)CC1 (stereo not shown) [Example C6, 4-[[3-[2,3-difluoro-4-[1-(2-methoxyethyl)-3,5-dimethyl-pyrazol-4-yl]phenyl]imidazo[1,2-a]pyrazin-8-yl]amino]-2-ethyl-N-[[1-(2-hydroxyethyl)-1-methyl-piperidin-1-ium-4-yl]methyl]benzamide; formate]
1000 | 270 | CCc1cc(Nc2nccn3c(-c4ccc(-c5cn(CCOC)nc5C)c(F)c4F)cnc23)ccc1C(=O)NCC1CC[N+](C)(C)CC1 [Example C1, 4-[[3-[2,3-Difluoro-4-[1-(2-methoxyethyl)-3-methyl-pyrazol-4-yl]phenyl]imidazo[1,2-a]pyrazin-8-yl]amino]-N-[(1,1-dimethylpiperidin-1-ium-4-yl)methyl]-2-ethyl-benzamide; formate]
1900 | 680 | CCc1cc(Nc2nccn3c(-c4ccc(-c5c(C)nn(CCOC)c5C)c(F)c4F)cnc23)ccc1C(=O)NCC1CC[N+](C)(CC(N)=O)CC1 (stereo not shown) [Example C5, N-[[1-(2-amino-2-oxo-ethyl)-1-methyl-piperidin-1-ium-4-yl]methyl]-4-[[3-[2,3-difluoro-4-[1-(2-methoxyethyl)-3,5-dimethyl-pyrazol-4-yl]phenyl]imidazo[1,2-a]pyrazin-8-yl]amino]-2-ethyl-benzamide; formate]
